From patent US10160785B2, “Antimicrobial peptides and their use for the treatment of topical infections” (priority 2015, dated 2018)
≈ marks a conversion by molar mass, not a printed value.

Experiments:
Format in all cases: cell-based
[1] = system: Candida albicans (Olomouc); experiment: microbe, parasite or virus in culture; conditions: Candida albicans; RPMI broth microdilution, 35° C., 48 hours, visual; read-out: Antifungal activity MIC C. albicans Olomouc
Description: (§1) All yeasts Candida albicans (Olomouc) and ATCC MYA-2876, Candida glabrata ATCC 2001 and DSY 565, Candida dubliniensis ATCC MYA-646, Candida krusei ATCC 6258 and Candida tropicalis ATCC 750 were sub-cultured from sterile vials onto Sabouraud dextrose agar, which was composed of 40 g dextrose (Penta, Czech Republic), 10 g peptone (OXOID, Great Britain) and 17 g agar (OXOID), dissolved in 1 l of distilled water, and cultivated for 24 hours at 35° C.
(§2) All strains were stored in a way that minimizes the possibility of mutation. Candida spp. were grown overnight in liquid YPD medium which is composed of 10 g yeast extract (DIFCO, USA), 20 g peptone (OXOID), and 20 g dextrose (Penta) dissolved in 1 l distilled water. Then the overnight culture was cryogenically preserved by suspending in 50% glycerol solution (1:1) in small vials and stored at −80° C.
(§3) The inoculum was prepared by picking five colonies from 24-hour-old cultures of Candida spp. The colonies were suspended in 1 ml of sterile saline solution and vortexed for 15 seconds. Optical density of the suspension was adjusted spectrophotometrically by adding sterile saline solution to produce optical density of 0.18 at 600 nm. A working suspension was made by a 1:50 dilution followed by a 1:20 dilution of the stock suspension with RPMI 1640 broth medium which was composed of L-glutamine without NaHCO3 (BioSera, France), and with 0.165 mol.l^−1 MOPS (Duchefa, Netherland)—further as RPMI broth medium.
(§4) The broth microdilution test was performed by using sterile, disposable, multi-well microdilution plates (96-well). The peptides in the concentrations 0.625-160 μmol.l^−1 were pipetted into the wells in 100 μl volumes. Each well of the plate was inoculated with 100 μl of the diluted inoculum suspension. Final yeast density in each well was 5×10^2 up to 2.5×10^3 CFU/ml. The microdilution plates were incubated without shaking at 35° C. and observed for the presence or absence of visible growth for 48 hours.
(§5) Drug-free medium without inoculation served as negative control; the growth positive control contained inoculated drug-free medium. Amphotericin B was used as control drug to ensure quality of Candida strains.
(§6) The minimal inhibition concentrations (MICs) were visually determined 48 hours after inoculation. The MIC values were defined as the lowest concentration in which no observable growth is noticeable.
(§7) All yeast isolates were obtained from the Institute of Physiology of the Academy of Sciences of the Czech Republic. Candida albicans (Olomouc) came from the Faculty of Medicine and Dentistry, Palacý University Olomouc.

[2] = system: Candida albicans ATCC MYA-2876; experiment: microbe, parasite or virus in culture; conditions: Candida albicans; RPMI broth microdilution, 35° C., 48 hours, visual; read-out: Antifungal activity MIC C. albicans ATCC MYA-2876
Description: as §1, §2, §3, §4, §5, §6, §7

[3] = system: Candida dubliniensis ATCC MYA-646; experiment: microbe, parasite or virus in culture; conditions: Candida dubliniensis; RPMI broth microdilution, 35° C., 48 hours, visual; read-out: Antifungal activity MIC C. dubliniensis ATCC MYA-646
Description: as §1, §2, §3, §4, §5, §6, §7

[4] = system: Candida glabrata ATCC 2001; experiment: microbe, parasite or virus in culture; conditions: Nakaseomyces glabratus, ATCC2001; RPMI broth microdilution, 35° C., 48 hours, visual; read-out: Antifungal activity MIC C. glabrata ATCC 2001
Description: as §1, §2, §3, §4, §5, §6, §7

Candida glabrata DSY 565 = experiment: microbe, parasite or virus in culture; conditions: Nakaseomyces glabratus, DSY565; RPMI broth microdilution, 35° C., 48 hours, visual; read-out: Antifungal activity MIC C. glabrata DSY 565
Description: as §1, §2, §3, §4, §5, §6, §7

Candida krusei ATCC 6258 = experiment: microbe, parasite or virus in culture; conditions: Pichia kudriavzevii, ATCC6258; RPMI broth microdilution, 35° C., 48 hours, visual; read-out: Antifungal activity MIC C. krusei ATCC 6258
Description: as §1, §2, §3, §4, §5, §6, §7

[5] = system: Candida tropicalis ATCC 750; experiment: microbe, parasite or virus in culture; conditions: Candida tropicalis, ATCC750; RPMI broth microdilution, 35° C., 48 hours, visual; read-out: Antifungal activity MIC C. tropicalis ATCC 750
Description: as §1, §2, §3, §4, §5, §6, §7

[6] = system: Candida albicans (Olomouc) biofilm; experiment: C. albicans biofilm, remaining metabolic activity (XTT)
Description: Candida albicans (Olomouc) was sub-cultured overnight in YPD medium (10 g yeast extract (DIFCO, USA), 20 g peptone (OXOID), 20 g glucose (Penta) dissolved in 1 L of distilled water) at constant shaking (100 RPM) at 37° C. Next day, the overnight culture was diluted 1:100 into fresh YPD medium and incubated at constant shaking (200 RPM) at 37° C. until the mid-exponential growth phase was reached. Then the cells were harvested and washed twice by centrifugation in physiological solution (5000 RPM; 5 min). Cells were suspended in sterile salt solution and their optical density was determined at 600 nm.
A final yeast suspension was prepared at a cell density of 1×10^6 CFU (corresponding to optical density of 0.17 at 600 nm) in RPMI 1640 medium with L-glutamine (BioSera), NaHCO3 (2 g/l; Penta) and 0.165 mol.l^−1 MOPS (Duchefa)—further as RPMI broth medium 1.
Biofilms were formed on commercially available sterile, polystyrene, flat-bottomed, 96-well microtiter plates (TPP, SW). Cell suspension (100 μl) was pipetted into selected wells of a microtiter plate and incubated without shaking for 2 hours at 37° C. Afterwards, the wells were washed twice with sterile PBS buffer (1.44 g Na2HPO4, 0.24 g KH2PO4, 0.2 g KCl and 8 g NaCl in 1 l distilled water, pH=7; Penta). Fresh RPMI broth medium 1 (100 μl) was added to each well and the plate was sealed with parafilm and incubated without shaking for 48 hours at 37° C.
Planktonic and non-adherent cells were removed by threefold washing of the biofilm with sterile PBS buffer (200 μl). A twofold serial dilution was used to reach required peptide concentration (in RPMI broth medium 1) in each well. Peptide concentrations range was between 0.39-200 μmol.l^−1. Plates were then sealed with parafilm and incubated for 20 hours at 37° C.
The metabolic activity of surviving Candida cells in the treated biofilm was determined by staining with XTT (2,3-Bis(2-methoxy-4-nitro-5-sulphophenyl)-2H-tetrazolium-5-carboxanilide). Stock solution of PMS (phenazine methosulfate; 7.5 g/l; SIGMA, Czech Republic) stored at −20° C. was diluted in PBS buffer 1:100. Diluted PMS was further mixed (2:25) with stock solution of XTT (0.5 g/l; Alchimica, Slovakia) dissolved in PBS/RPMI broth medium (1:1). Mixture (100 μl) of PMS and XTT was added into treated biofilm in the wells and incubated for 90 min at 37° C. Then the intensity of staining in each well was measured as absorbance at 540 nm on a Tecan Infinite M200 Pro reader (Tecan GmbH, Austria). Remaining metabolic activity of the cells in the biofilm was expressed for each well in percentage and calculated as follows:
[formula] where A is the absorbance of tested compound, ABL is the absorbance of negative control and AC is the absorbance of control untreated biofilm. The non-inoculated wells served as negative control. Inoculated wells not treated with compound served as positive control. Amphotericin B was used as control drug to ensure quality of Candida albicans. The values of remaining metabolic activity of treated biofilms are shown at Table 5.

[7] = peptide concentration 6.25 μmol · l^−1, 20 hours
[8] = peptide concentration 12.5 μmol · l^−1, 20 hours
[9] = peptide concentration 25 μmol · l^−1, 20 hours
[10] = peptide concentration 50 μmol · l^−1, 20 hours
[11] = peptide concentration 100 μmol · l^−1, 20 hours
[12] = peptide concentration 200 μmol · l^−1, 20 hours

Structure (SMILES) | MIC [1] | MIC [2] | MIC [3] | MIC [4] | MIC (Candida glabrata DSY 565) | MIC (Candida krusei ATCC 6258) | MIC [5] | Metabolic activity of C. albicans (%) [6, 7] | Metabolic activity of C. albicans (%) [6, 8] | Metabolic activity of C. albicans (%) [6, 9] | Metabolic activity of C. albicans (%) [6, 10] | Metabolic activity of C. albicans (%) [6, 11] | Metabolic activity of C. albicans (%) [6, 12]
Clc1ccccc1C(c1ccccc1)(c1ccccc1)n1ccnc1 [Clotrimazole, reference compound] | 0.4 µM (≈ 0.138 µg/mL) | 0.3 µM (≈ 0.103 µg/mL) | 1.4 µM (≈ 0.483 µg/mL) | 14.2 µM (≈ 4.9 µg/mL) | 35 µM (≈ 12.1 µg/mL) | 1 µM (≈ 0.345 µg/mL) | 4.6 µM (≈ 1.59 µg/mL) | 39.7% | 37.6% | 34.2% | 28.4% | 21.8% | 22.2%
OC(Cn1cncn1)(Cn1cncn1)c1ccc(F)cc1F [Fluconazole, reference compound] | 2 µM (≈ 0.613 µg/mL) | 2.2 µM (≈ 0.674 µg/mL) | 1.8 µM (≈ 0.551 µg/mL) | 267 µM (≈ 81.7 µg/mL) | 950 µM (≈ 291 µg/mL) | 516 µM (≈ 158 µg/mL) | 49.3 µM (≈ 15.1 µg/mL) | 33.5% | 30.8% | 31.7% | 30.7% | 32.4% | 29.2%
